# Data from US6335341B1, “Pyridyl-and pyrimidyl-heterocyclic compounds inhibiting oxido squalene-cyclase” (Zeneca Limited, priority 1997, dated 2002).
row,SMILES,melting point
1,"Cc1nccc(N2CCC(O)(CN3CCN(C(=O)c4ccc(F)cc4)CC3)CC2)n1 [Example 15, 1-(4-fluorobenzoyl)-4-[1-(2-methylpyrimidin-4-yl]-4-hydroxy-4-piperidylmethyl]piperazine]",114 to 117 °C
2,"O=S(=O)(c1ccc(Br)cc1)N1CCC(CN2CCC(c3ccncc3)CC2)CC1 [Example 3, 1-(4-bromophenylsulphonyl)-4-[4-(4-pyridyl)-1-piperidylmethyl]piperidine]",163 to 164 °C
3,"Cc1nccc(N2CCC(CN3CCN(C(=O)c4ccc(F)cc4)CC3)CC2)n1 [Example 8, 1-(4-fluorobenzoyl)-4-[1-(2-methyl-4-pyrimidinyl)-4-piperidylmethyl]piperazine]",127 to 128 °C
4,"O=S(=O)(c1ccc(Br)cc1)N1CCN(CC2CCN(c3ccncc3Cl)CC2)CC1 [Example 20, 1-(4-bromophenylsulphonyl)-4-[1-(3-chloro-4-pyridyl)piperidin-4-ylmethyl]piperazine]",158 to 159 °C
5,"O=S(=O)(c1ccc(Br)cc1)N1CCN(CC2CCN(c3ccncc3)CC2)CC1 [Example 19, 1-(4-bromophenylsulphonyl)-4-[1-(4-pyridyl)piperidin-4-ylmethyl]piperazine]",179 to 180 °C
6,"Cc1nccc(N2CCN(CC3CCN(S(=O)(=O)c4ccc(Cl)cc4)CC3)CC2)n1 [Example 1, 1-(4-chlorophenylsulphonyl)-4-[1-(2-methylpyrimidin-4-yl)piperazin-4ylmethyl]piperidine]",191 to 193 °C (dec.)
7,"Cc1cc(N2CCC(CN3CCN(S(=O)(=O)c4ccc(Cl)cc4)CC3)CC2)nc(C)n1 [Example 11, 1-(4-chlorophenylsulphonyl)-4-[1-(2,6-dimethylpyrimidin-4-yl)-4-piperidylmethyl]piperazine]",73 to 74 °C
